Experimental data reported in patent US12600728B2, “Interleukin-17 inhibitors” (priority 2020, dated 2026).
Read-outs that look alike come from different tables or passages of the source.

Columns and labels:
[1] = biological target: biotinylated human IL-17A / AF647-labeled human IL-17RA (Homo sapiens, UniProt Q16552); assay: Human IL-17A×IL-17RA TR-FRET assay; format: binding
Procedure: Human IL-17A×IL-17RA TR-FRET Assay
Each compound concentration is tested in duplicate.
The final total assay volume is 10 μL.
Each plate contains test compounds in columns 1-22 and controls in columns 23 and 24. The neutral control (NC) contains all the assay components, but DMSO instead of test compound. […] The fluorescence values for emission at 615 nm and 665 nm are loaded to the evaluation software Helios.
From the activity data at each compound concentration, the IC50 values are obtained using the 4-parameter logistic function (“Hill-slope model”) of Helios.

[2] = biological target: recombinant human IL-17AA (Homo sapiens, UniProt Q16552); assay: IL-6 release from NHDF cells, IL-17AA plus TNF-α stimulation; format: cell-based; details: 24 hours, IL-6 by ELISA
recombinant human IL-17AA, sequence (Q16552 24-155): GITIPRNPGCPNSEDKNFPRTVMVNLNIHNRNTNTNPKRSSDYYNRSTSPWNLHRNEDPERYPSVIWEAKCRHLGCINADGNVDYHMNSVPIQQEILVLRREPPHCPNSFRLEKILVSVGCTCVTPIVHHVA
Procedure: IL-6 Release from NHDF Cells (Normal Human Dermal Fibroblasts)
NHDF cells isolated from normal adult mesoderm, connective tissues were cultured in fibroblast growth medium containing 2% supplement. […] The cells were allowed to adhere overnight before they were incubated with the compound/cytokine cocktail.
Diluted compounds were pre-incubated with recombinant human IL-17AA or IL-17AF plus human TNF-α for 30 minutes at room temperature on a shaker. […] The cells were incubated with the compound/cytokines cocktail for 24 hours at 37° C. (5% CO2). […] The final DMSO or plasma concentrations were 0.1% or 20%, respectively. All compound incubations were done in duplicate. The supernatants were collected to quantify IL-6 by ELISA according to the manufacturers instructions. The optical density was measured at 450 nm by an EnVision Multilabel Plate Reader (Perkin Elmer). The IL-6 levels produced after TNF-α stimulation were subtracted from the IL-6 produced after IL-17/TNF-α co-stimulation. These IL-17-specific IL-6 concentrations were used for […] value calculation.

[3] = IL17AA FRET/ IL17Rawt IC50, TR-FRET, biotinylated human IL-17A 5 nM, AF647-labeled human IL-17RA 30 nM
[4] = IL17AA + TNF IC50 IL-6, NHDF cells, IL-17AA 30 pM plus TNF-α 6 pM
[5] = TR-FRET, 5 nM IL-17A, 30 nM IL-17RA, read-out: IL17AA FRET/ IL17Rawt IC50
[6] = NHDF cells, IL-17AA 30 pM + TNF-α 6 pM, read-out: IL17AA + TNF IC50 IL-6
[7] = TR-FRET, biotinylated human IL-17A 5 nM, AF647-labeled human IL-17RA 30 nM, read-out: IL17AA FRET/ IL17Rawt IC50
[8] = NHDF cells, IL-17AA 30 pM plus TNF-α 6 pM, read-out: IL17AA + TNF IC50 IL-6

biotinylated human IL-17A / AF647-labeled human IL-17RA, sequence (Q16552 24-155): as above

Row | SMILES | IC50 [1, 7] | IC50 [2, 8] | also measured
1 | CCn1nccc1C(=O)NC(C(=O)Nc1ccc(-c2c(C(F)(F)F)cc[n+]([O-])c2C)cc1)C1CC2CC2C1 (single isomer, unassigned) [Example 64] | – | – | IC50 [1, 3]: 74 nM; IC50 [2, 4]: 25 nM
2 | CCn1nccc1C(=O)NC(C(=O)Nc1ccc(-c2c(Cl)cc[n+]([O-])c2C)cc1)C1CC2CC2C1 (single isomer, unassigned) [Example 145] | – | – | IC50 [1, 5]: 24 nM; IC50 [2, 6]: 23.5 nM
3 | Cc1nocc1C(=O)NC(C(=O)Nc1ccc(-c2c(Cl)cc[n+]([O-])c2C)cc1)C1CC2CC2C1 (single isomer, unassigned) [Example 181] | – | – | IC50 [1, 5]: 54.8 nM; IC50 [2, 6]: 64 nM
4 | Cc1cc[n+]([O-])c(C)c1-c1ccc(NC(=O)C(NC(=O)c2ccc3n2CCN(C)C3)C2CC3CC3C2)cc1 (single isomer, unassigned) [Example 192] | – | – | IC50 [1, 5]: 151 nM; IC50 [2, 6]: 142 nM
5 | Cc1nocc1C(=O)NC(C(=O)Nc1ccc(-c2c(Cl)cc[n+]([O-])c2C)cc1)C1CC2CC2C1 (single isomer, unassigned) [Example 198] | – | – | IC50 [1, 5]: 222 nM; IC50 [2, 6]: 94 nM
6 | CCn1nccc1C(=O)NC(C(=O)Nc1ccc(-c2c(Cl)cc[n+]([O-])c2C)cc1)C1CC2CC2C1 (single isomer, unassigned) [Example 209] | – | – | IC50 [1, 5]: 381 nM; IC50 [2, 6]: 175 nM
7 | Cc1cc[n+]([O-])c(C)c1-c1ccc(NC(=O)[C@@H](NC(=O)c2ccnn2C)[C@H]2CCCc3ccccc32)cc1 [Example 1, 2,4-dimethyl-3-(4-((S)-2-(1-methyl-1H-pyrazole-5-carboxamido)-2-((S)-1,2,3,4-tetrahydronaphthalen-1-yl)acetamido)phenyl)pyridine 1-oxide] | 8 nM | 4 nM | –
8 | Cc1c(-c2ccc(NC(=O)[C@@H](NC(=O)c3ccnn3C)C3CCCCC3)cc2F)c(Cl)cc[n+]1[O-] [Example 2, 4-chloro-3-(4-((S)-2-cyclohexyl-2-(1-methyl-1H-pyrazole-5-carboxamido)acetamido)-2-fluorophenyl)-2-methylpyridine 1-oxide] | 24 nM | 15 nM | –
9 | Cc1cc[n+]([O-])c(C)c1-c1ccc(NC(=O)C(NC(=O)c2ccnn2C)C2CCC(C)CC2)cc1 [Example 3, 2,4-dimethyl-3-(4-((S)-2-(1-methyl-1H-pyrazole-5-carboxamido)-2-((1r,4S)-4-methylcyclohexyl)acetamido)phenyl)pyridine 1-oxide] | 24 nM | 7 nM | –
10 | CCc1nocc1C(=O)NC(C(=O)Nc1ccc(-c2c(Cl)cc[n+]([O-])c2C)cc1)C1CCC(C(F)(F)F)CC1 [Example 4, 4-chloro-3-(4-((S)-2-(3-ethylisoxazole-4-carboxamido)-2-((1r,4S)-4-(trifluoromethyl)cyclohexyl)acetamido)phenyl)-2-methylpyridine 1-oxide] | 26 nM | 12 nM | –
11 | CCn1nccc1C(=O)NC(C(=O)Nc1ccc(-c2c(C)cc[n+]([O-])c2C)cc1)C1CCC(C(F)(F)F)CC1 [Example 7, 3-(4-((S)-2-(1-ethyl-1H-pyrazole-5-carboxamido)-2-((1r,4S)-4-(trifluoromethyl)cyclohexyl)acetamido)phenyl)-2,4-dimethylpyridine 1-oxide] | – | – | IC50 [1, 3]: 46 nM; IC50 [2, 4]: 26 nM
12 | CCc1nocc1C(=O)NC(C(=O)Nc1ccc(-c2c(C)cc[n+]([O-])c2C)cc1)C1CCC(C(F)(F)F)CC1 [Example 8, 3-(4-((S)-2-(3-ethylisoxazole-4-carboxamido)-2-((1r,4S)-4-(trifluoromethyl)cyclohexyl)acetamido)phenyl)-2,4-dimethylpyridine 1-oxide] | 41 nM | 4 nM | –
13 | Cc1nocc1C(=O)N[C@H](C(=O)Nc1ccc(-c2c(C(F)(F)F)cc[n+]([O-])c2C)cc1)[C@H]1CCCC(F)(F)C1 [Example 9, 3-(4-((S)-2-((S)-3,3-difluorocyclohexyl)-2-(3-methylisoxazole-4-carboxamido)acetamido)phenyl)-2-methyl-4-(trifluoromethyl)pyridine 1-oxide] | 60 nM | 4 nM | –
14 | CCn1nccc1C(=O)N[C@H](C(=O)Nc1ccc(-c2c(C(F)(F)F)cc[n+]([O-])c2C)cc1)[C@H]1CCCC(F)(F)C1 [Example 10, 3-(4-((S)-2-((S)-3,3-difluorocyclohexyl)-2-(1-ethyl-1H-pyrazole-5-carboxamido)acetamido)phenyl)-2-methyl-4-(trifluoromethyl)pyridine 1-oxide] | 93 nM | 11 nM | –
15 | COCCn1nccc1C(=O)N[C@H](C(=O)Nc1ccc(-c2c(Cl)cc[n+]([O-])c2C)c(F)c1)C1CCCCC1 [Example 15, 4-chloro-3-(4-((S)-2-cyclohexyl-2-(1-(2-methoxyethyl)-1H-pyrazole-5-carboxamido)acetamido)-2-fluorophenyl)-2-methylpyridine 1-oxide] | 52 nM | 10 nM | –
16 | Cc1cc[n+]([O-])c(C)c1-c1ccc(NC(=O)C(NC(=O)c2ccnn2C)C2CCC(C(F)(F)F)CC2)cc1 [Example 24, 2,4-dimethyl-3-(4-((S)-2-(1-methyl-1H-pyrazole-5-carboxamido)-2-((1r,4S)-4-(trifluoromethyl)cyclohexyl)acetamido)phenyl)pyridine 1-oxide] | – | – | IC50 [1, 3]: 114 nM; IC50 [2, 4]: 48 nM

Second part, led by results:

Row | IC50 [1, 7] | IC50 [2, 8] | SMILES | also measured
17 | 82 nM | 20 nM | CCn1nccc1C(=O)N[C@H](C(=O)Nc1ccc(-c2c(C(F)(F)F)cc[n+]([O-])c2C)cc1)C1CCC(F)(F)CC1 [Example 11, (S)-3-(4-(2-(4,4-difluorocyclohexyl)-2-(1-ethyl-1H-pyrazole-5-carboxamido)acetamido)phenyl)-2-methyl-4-(trifluoromethyl)pyridine 1-oxide] | –
18 | 24 nM | 9 nM | Cc1nocc1C(=O)N[C@H](C(=O)Nc1ccc(-c2c(Cl)cc[n+]([O-])c2C)c(F)c1)C1CCCCC1 [Example 14, 4-chloro-3-(4-((S)-2-cyclohexyl-2-(3-methylisoxazole-4-carboxamido)acetamido)-2-fluorophenyl)-2-methylpyridine 1-oxide] | –
19 | 118 nM | 18 nM | Cc1nscc1C(=O)N[C@H](C(=O)Nc1ccc(-c2c(Cl)cc[n+]([O-])c2C)c(F)c1)C1CCCCC1 [Example 17, 4-chloro-3-(4-((S)-2-cyclohexyl-2-(3-methylisothiazole-4-carboxamido)acetamido)-2-fluorophenyl)-2-methylpyridine 1-oxide] | –
20 | 25 nM | 28 nM | Cc1c(-c2ccc(NC(=O)C(NC(=O)c3ccnn3C)C3CCC(C(F)(F)F)CC3)cc2)c(Cl)cc[n+]1[O-] [Example 18, 4-chloro-2-methyl-3-(4-((S)-2-(1-methyl-1H-pyrazole-5-carboxamido)-2-((1r,4S)-4-(trifluoromethyl)cyclohexyl)acetamido)phenyl)pyridine 1-oxide] | –
21 | 26 nM | 20 nM | Cc1nocc1C(=O)NC(C(=O)Nc1ccc(-c2c(Cl)cc[n+]([O-])c2C)cc1)C1CCC(C(F)(F)F)CC1 [Example 19, 4-chloro-2-methyl-3-(4-((S)-2-(3-methylisoxazole-4-carboxamido)-2-((1r,4S)-4-(trifluoromethyl)cyclohexyl)acetamido)phenyl)pyridine 1-oxide] | –
22 | 39 nM | 31 nM | CCn1nccc1C(=O)N[C@H](C(=O)Nc1ccc(-c2c(C(F)(F)F)cc[n+]([O-])c2C)cc1)C1CCCC1 [Example 21, (S)-3-(4-(2-cyclopentyl-2-(1-ethyl-1H-pyrazole-5-carboxamido)acetamido)phenyl)-2-methyl-4-(trifluoromethyl)pyridine 1-oxide] | –
23 | 59 nM | 66 nM | Cc1nocc1C(=O)N[C@H](C(=O)Nc1ccc(-c2c(C(F)(F)F)cc[n+]([O-])c2C)cc1)C1CCCC1 [Example 22, (S)-3-(4-(2-cyclopentyl-2-(3-methylisoxazole-4-carboxamido)acetamido)phenyl)-2-methyl-4-(trifluoromethyl)pyridine 1-oxide] | –
24 | 60 nM | 6 nM | Cc1cc[n+]([O-])c(C)c1-c1ccc(NC(=O)C(NC(=O)c2conc2C)C2CCC(C(F)(F)F)CC2)cc1 [Example 23, 2,4-dimethyl-3-(4-((S)-2-(3-methylisoxazole-4-carboxamido)-2-((1r,4S)-4-(trifluoromethyl)cyclohexyl)acetamido)phenyl)pyridine 1-oxide] | –
